The values below come from patent US20240116896A1 (ATAI Life Sciences AG, priority 2022, published 2024).

What all share (assay type): cell-based
The target in assay [1] is T1, 5-HT2A (Homo sapiens, UniProt P28223). The assay can be described thus: PathHunter b-arrestin assay, agonist mode, 5-HT2A. An excerpt: GPCR Arrestin Assay Methods
Arrestin Pathway (Performed by DiscoverX Eurofins)
The PathHunter® β-Arrestin assay monitors the activation of a GPCR in a homogenous, non-imaging assay format using a technology developed by DiscoverX called Enzyme Fragment Complementation (EFC) with β-galactosidase (β-Gal) as the functional reporter. […] EA is fused to β-Arrestin and PK is fused to the GPCR of interest.
When the GPCR is activated and β-Arrestin is recruited to the receptor, ED and EA complementation occurs, restoring β-Gal activity which is measured using chemiluminescent PathHunter® Detection Reagents.
PathHunter cell lines (DiscoveRx Eurofins) were expanded from freezer stocks according to standard procedures. Cells were seeded in a total volume of 20 μL into white walled, 384-well microplates and incubated at 37° C. for the appropriate time prior to testing. […]
b-Arrestin assay signal was generated through a single addition of 12.5 or 15 μL (50% v/v) of PathHunter Detection reagent cocktail, followed by a one-hour incubation at room temperature. Microplates were read following signal generation with a PerkinElmer Envision™ instrument for chemiluminescent signal detection.
Compound activity was analyzed using CBIS data analysis suite (ChemInnovation, CA). For agonist mode assays, percentage activity was calculated using the following formula: […]

The target in assay [2] is T2, 5-HT2C (Homo sapiens, UniProt P28335).
T2 sequence (P28335 33-458): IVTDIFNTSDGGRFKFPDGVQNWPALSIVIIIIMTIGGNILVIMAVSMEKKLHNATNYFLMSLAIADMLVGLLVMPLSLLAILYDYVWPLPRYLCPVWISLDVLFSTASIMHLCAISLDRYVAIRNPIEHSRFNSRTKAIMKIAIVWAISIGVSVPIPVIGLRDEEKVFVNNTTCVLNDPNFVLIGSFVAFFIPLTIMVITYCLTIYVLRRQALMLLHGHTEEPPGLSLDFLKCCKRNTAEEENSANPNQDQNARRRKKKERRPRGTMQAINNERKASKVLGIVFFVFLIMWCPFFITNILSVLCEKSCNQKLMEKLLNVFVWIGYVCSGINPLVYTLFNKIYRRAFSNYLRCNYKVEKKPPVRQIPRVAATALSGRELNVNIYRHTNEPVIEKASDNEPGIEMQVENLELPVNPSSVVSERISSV
The assay can be described thus: Calcium mobilization (Ca++ flux) assay, agonist mode, 5-HT2C. An excerpt: (§1) Calcium Mobilization Assay Method (Performed by DiscoveRx Eurofins)
(§2) The Calcium No-Wash^PLUS assay monitors the activation of a GPCR via Gq secondary messenger signaling in a live cell, non-imaging assay format. Calcium mobilization in PathHunter® cell lines or other cell lines stably expressing Gq-coupled GPCRs is monitored using a calcium-sensitive dye that is loaded into cells. GPCR activation by a compound results in the release of calcium from intracellular stores and an increase in dye fluorescence that is measured in real-time.
Cell lines expressing the GPCR of interest were expanded from freezer stocks according to standard procedures. Cells were seeded in a total volume of 20 μL into black-walled, clear-bottom, Poly-D-lysine coated 384-well microplates and incubated at 37° C. for the appropriate time prior to testing. […]
(§3) Intermediate dilution of sample stocks was performed to generate 4× sample in assay buffer. Compound agonist activity was measured on a FLIPR Tetra (MDS). Calcium mobilization was monitored for 2 minutes and 10 μL 4× sample in HBSS/20 mM Hepes was added to the cells 5 seconds into the assay.
Compound activity data was analyzed using CBIS data analysis suite (ChemInnovation, CA). For agonist mode assays, percentage activity is calculated using the following formula: […]

Assay [3] concerns the target T3, 5-HT2B (Homo sapiens, UniProt P41595). Description: Calcium mobilization (Ca++ flux) assay, agonist mode, 5-HT2B. Conditions: for 5-HT2B, Ca++ flux % activation @30 uM: relative to MAX serotonin control; for EC50: agonist mode.
From the text: as §1, §2
(§4) Cell lines expressing the GPCR of interest were expanded from freezer stocks according to standard procedures. Cells were seeded in a total volume of 20 μL into black-walled, clear-bottom, Poly-D-lysine coated 384-well microplates and incubated at 37° C. for the appropriate time prior to testing.
(§5) Assays were performed in 1× Dye Loading Buffer consisting of 1× Dye, 1× Additive A and 2.5 mM Probenecid in HBSS/20 mM Hepes. Probenicid was prepared fresh. Cells were loaded with dye prior to testing. Media was aspirated from cells and replaced with 20 μL Dye Loading Buffer. Cells were incubated for 30-60 minutes at 37° C.
(§6) For agonist determination, cells were incubated with sample to induce response. After dye loading, cells were removed from the incubator and 10 μL HBSS/20 mM Hepes was added. 3× vehicle was included in the buffer when performing agonist dose curves to define the EC80 for subsequent antagonist assays. Cells were incubated for 30 minutes at room temperature in the dark to equilibrate plate temperature.
as §3
(§7) Compound activity data was analyzed using CBIS data analysis suite (ChemInnovation, CA). For agonist mode assays, percentage activity is calculated using the following formula:
(§8) % Activity=100%×(mean RFU of test sample−mean RFU of vehicle control)/(mean MAX RFU control ligand−mean RFU of vehicle control).
(§9) In these studies, the MAX RFU was generated by using 0.1 mM serotonin for the calcium mobilization assay.

Assay [4] has as its target T1, 5-HT2A. The assay can be described thus: Calcium mobilization (Ca++ flux) assay, agonist mode, 5-HT2A. The note with it: for 5-HT2A, Ca++ flux % activation @30 uM: relative to MAX serotonin control.
From the text: as §1, §2, §4, §5, §6, §3, §7, §8, §9
(In general: A change in cytosolic calcium serves as a functional read-out for many receptors and channels.)

The target of assay [5] is T1, 5-HT2A. Description: IPOne (IP1 HTRF) assay, CHO-K1 cells expressing human 5-HT2A. The note with it: for activation at 0.3 µM / activation at 30 µM: CHO-K1, percentage of reference agonist α-Me-5-HT at its EC100. The arrangement: expressed in transfected cells; host or cells: CHO-K1. Here is the method:
(§10) IPOne assays were performed using stably-transfected cell lines (CHO-K1) expressing human 5-HT2A or 5-HT2B receptors. Upon activation of these receptors, Gq-mediated myo-Inositol 1 phosphate (IP1) production is detected by a Homogeneous Time-Resolved Fluorescence (HTRF) competitive immunoassay, whereby an IP1 analog coupled to a fluorophore (acceptor) competes with endogenous IP1 for binding to a labeled anti-IP1 antibody (donor). The resulting signal is inversely proportional to the concentration of IP1 in the sample. Cells were incubated with an IP1 inhibitor (to prevent degradation and allow detection) and either reference compound or test compound. α-Me-5-HT was used as the assay reference agonist. Activation of 5-HT2A or 5-HT2B receptors was measured via accumulation of IP1 detected by HTRF. Agonist activity of test compounds was expressed as a percentage of the activity of the reference agonist at its EC100 concentration.
(In general: TR-FRET usually uses a lanthanide donor and a delayed reading to cut background.)

For assay [6], the target named is T3, 5-HT2B. The assay can be described thus: IPOne (IP1 HTRF) assay, CHO-K1 cells expressing human 5-HT2B. The arrangement: expressed in transfected cells; host or cells: CHO-K1. Conditions: for activation at 0.3 µM / activation at 30 µM: CHO-K1, percentage of reference agonist α-Me-5-HT at its EC100. Here is the method:
as §10

T3 sequence (P41595 whole entry): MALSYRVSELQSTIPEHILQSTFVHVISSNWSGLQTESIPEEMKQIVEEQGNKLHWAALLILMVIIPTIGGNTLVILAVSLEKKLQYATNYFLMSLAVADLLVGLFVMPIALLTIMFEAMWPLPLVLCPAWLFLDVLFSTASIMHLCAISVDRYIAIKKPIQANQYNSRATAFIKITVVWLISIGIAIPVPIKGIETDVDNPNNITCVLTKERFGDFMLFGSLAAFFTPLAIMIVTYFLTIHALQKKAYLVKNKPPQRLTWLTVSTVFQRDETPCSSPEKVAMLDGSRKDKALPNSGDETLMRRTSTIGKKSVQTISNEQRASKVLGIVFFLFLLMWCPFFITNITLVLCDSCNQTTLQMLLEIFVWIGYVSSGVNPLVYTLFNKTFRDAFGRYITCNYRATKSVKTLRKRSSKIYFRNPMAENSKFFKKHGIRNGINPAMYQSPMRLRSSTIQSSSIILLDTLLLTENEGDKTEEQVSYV
T1 sequence (P28223 whole entry): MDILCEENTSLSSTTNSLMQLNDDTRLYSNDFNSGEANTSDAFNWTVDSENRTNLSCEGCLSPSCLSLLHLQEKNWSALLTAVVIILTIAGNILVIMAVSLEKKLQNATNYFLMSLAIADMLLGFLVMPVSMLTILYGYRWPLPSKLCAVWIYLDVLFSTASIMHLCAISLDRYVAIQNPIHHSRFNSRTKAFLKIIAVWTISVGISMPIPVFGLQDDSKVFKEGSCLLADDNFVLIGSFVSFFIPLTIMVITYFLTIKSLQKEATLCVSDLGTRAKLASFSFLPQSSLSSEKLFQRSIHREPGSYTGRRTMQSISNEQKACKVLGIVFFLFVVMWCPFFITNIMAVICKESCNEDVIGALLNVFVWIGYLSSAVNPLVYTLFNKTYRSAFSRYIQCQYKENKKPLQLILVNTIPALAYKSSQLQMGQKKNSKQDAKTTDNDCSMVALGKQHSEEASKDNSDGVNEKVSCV

With `COC(=O)C1CCCN1CCc1c[nH]c2ccccc12` (stereo not shown) [Compound 1, methyl (2-(1H-indol-3-yl)ethyl)prolinate], the EC50 in assay [1] is 16100 nM; in assay [2] it was 4160 nM; in assay [3], over 30000 nM; in assay [4], 987 nM. The “5-HT2B, Ca++ flux % activation @30 uM” value in assay [3] came to 11.15%. The “5-HT2A, Ca++ flux % activation @30 uM” value in assay [4] is 78.24%.

Turning to `O=C(O)C1CCCN1CCc1c[nH]c2ccccc12` (stereo not shown) [Compound 2, (2-(1H-indol-3-yl)ethyl)proline], in assay [4], the 50% effective concentration (EC50) was over 30000 nM and the “5-HT2A, Ca++ flux % activation @30 uM” value is listed as 2.41%.

Regarding `OCC1CCCN1CCc1c[nH]c2ccccc12` (stereo not shown) [Compound 3, (1-(2-(1H-indol-3-yl)ethyl)pyrrolidin-2-yl)methanol], the activation at 0.3 µM came out at 47.9% in assay [5] and 25.9% in assay [6]. The activation at 30 µM in assay [5] turned out to be 97.5%; in assay [6] it was 93.9%. In addition, the EC50 in assay [1] was 1150 nM; in assay [2] it was 498 nM; in assay [3], over 30000 nM; in assay [4], 103 nM. Also, the “5-HT2B, Ca++ flux % activation @30 uM” value in assay [3] was 23.51%. Moreover, the “5-HT2A, Ca++ flux % activation @30 uM” value in assay [4] was determined as 94.73%.

With `COC(=O)CN(C)CCc1c[nH]c2ccccc12` [Compound 4, methyl N-(2-(1H-indol-3-yl)ethyl)-N-methylglycinate], in assay [4], the EC50 is 302 nM and the “5-HT2A, Ca++ flux % activation @30 uM” value came out at 36.92%.

As to `CN(CCc1c[nH]c2ccccc12)CC(=O)O` [Compound 5, N-(2-(1H-indol-3-yl)ethyl)-N-methylglycine], in assay [4], the concentration giving a half-maximal response (EC50) was over 30000 nM and the “5-HT2A, Ca++ flux % activation @30 uM” value worked out at 24.51%.

With `CN(CCO)CCc1c[nH]c2ccccc12` [Compound 6, 2-((2-(1H-indol-3-yl)ethyl)(methyl)amino)ethan-1-ol], in assay [4], the EC50 stood at 101 nM and the “5-HT2A, Ca++ flux % activation @30 uM” value stood at 42.83%.

As for `CC(C)(O)[C@@H]1CCCN1CCc1c[nH]c2ccccc12` [Compound 74, 2-[(2S)-1-[2-(1H-indol-3-yl)ethyl]pyrrolidin-2-yl] propan-2-ol], the EC50 in assay [5] (CHO-K1, human 5-HT2A) came out at 247 nM; in assay [6] (CHO-K1, human 5-HT2B), 526 nM. Besides, the activation at 0.3 µM was found to be 80.2% in assay [5] and 63% in assay [6]. Besides, the activation at 30 µM in assay [5] was 102%; in assay [6], 100%.

As for `C[C@@H](O)[C@@H]1CCCN1CCc1c[nH]c2ccccc12` [Compound 75], in assay [5], the activation at 0.3 µM is 23.4% and the activation at 30 µM turned out to be 87.3%. Moreover, in assay [6], the activation at 0.3 µM was determined as 5.88% and the activation at 30 µM amounted to 80.2%.

`CC[C@@H](O)[C@@H]1CCCN1CCc1c[nH]c2ccccc12` [Compound 77, (R)-1-((S)-1-(2-(1H-indol-3-yl)ethyl)pyrrolidin-2-yl)propan-1-ol]: in assay [5], the activation at 0.3 µM stood at 23.9% and the activation at 30 µM is 90.6%. In addition, in assay [6], the activation at 0.3 µM turned out to be 18.2% and the activation at 30 µM turned out to be 86.7%.

As to `CC[C@H](O)[C@@H]1CCCN1CCc1c[nH]c2ccccc12` [Compound 78, (S)-1-((S)-1-(2-(1H-indol-3-yl)ethyl)pyrrolidin-2-yl)propan-1-ol], in assay [5], the activation at 0.3 µM came to 1.39% and the activation at 30 µM was 64.3%. Moreover, in assay [6], the activation at 0.3 µM came out at 5.16% and the activation at 30 µM was found to be 82.2%.

On to `COC(=O)[C@]1(C)CCCN1CCc1c[nH]c2ccccc12` [Compound 92, methyl (S)-1-(2-(1H-indol-3-yl)ethyl)-2-methylpyrrolidine-2-carboxylate], for which, in assay [5], the activation at 0.3 µM is -16.3% and the activation at 30 µM is -6.28%. In assay [6], the activation at 0.3 µM is -2.23% and the activation at 30 µM came out at 15.4%.

As to `C[C@@]1(CO)CCCN1CCc1c[nH]c2ccccc12` [Compound 93, (S)-(1-(2-(1H-indol-3-yl)ethyl)-2-methylpyrrolidin-2-yl)methanol], in assay [5], the activation at 0.3 µM was -11.3% and the activation at 30 µM worked out at 1.82%. Further, in assay [6], the activation at 0.3 µM is -0.54% and the activation at 30 µM worked out at 25.6%.

Turning to `COC(=O)[C@@H]1CCCN1CCc1c[nH]c2ncccc12` [Compound 94, methyl (2-(1H-pyrrolo[2,3-b]pyridin-3-yl)ethyl)-L-prolinate], the results for the activation at 0.3 µM in assay [5] and in assay [6] were 0.14% and -0.22%, respectively. For the same molecule, the results for the activation at 30 µM in assay [5] and in assay [6] were 54.3% and 2.48%, respectively.

As to `OC[C@@H]1CCCN1CCc1c[nH]c2ncccc12` [Compound 95, (S)-(1-(2-(1H-pyrrolo[2,3-b]pyridin-3-yl)ethyl)pyrrolidin-2-yl)methanol], in assay [5], the activation at 0.3 µM turned out to be 0.81% and the activation at 30 µM worked out at 84.3%. Moreover, in assay [6], the activation at 0.3 µM was 1.09% and the activation at 30 µM worked out at 9.66%.

One may read the EC50 as the concentration needed to bring the measured effect to its halfway point.
